Measurements from the OligoGym collection.
HELM strings list units from the 5' end as sugar, base in round brackets, then linkage (d deoxyribose, r ribose, m 2'-O-methyl, p phosphodiester). Strings are as the collection lists them; they lack the last nucleoside at the 3' end of the tested compound. [moe] = 2'-O-(2-methoxyethyl) (MOE); [sp] = phosphorothioate linkage; [m5C] = 5-methylcytosine

Target: UBE3A-ATS
Test: mouse, dose not given
Settings: ASO

Substance | 3 h FOB score [score 0-7]
RNA1{[moe](A)[sp].[moe](G)p.[moe](G)p.[moe](T)p.[moe](G)p.d(T)[sp].d([m5C])[sp].d(T)[sp].d(T)[sp].d(A)[sp].d(T)[sp].d(A)[sp].d(T)[sp].d([m5C])[sp].d(T)[sp].[moe](A)p.[moe](T)p.[moe](G)[sp].[moe](A)}$$$$ (last 3' nucleoside missing) | 0
RNA1{[moe](A)[sp].[moe](G)p.[moe](G)p.[moe](T)p.[moe]([m5C])p.[moe](A)p.d(A)[sp].d([m5C])[sp].d([m5C])[sp].d(A)[sp].d(A)[sp].d(T)[sp].d(T)[sp].d(T)[sp].d(G)[sp].d([m5C])[sp].[moe](T)p.[moe](A)[sp].[moe](T)}$$$$ (last 3' nucleoside missing) | 5.3
RNA1{[moe](A)[sp].[moe](G)p.[moe](G)p.[moe](T)p.[moe]([m5C])p.d(A)[sp].d(A)[sp].d([m5C])[sp].d([m5C])[sp].d(A)[sp].d(A)[sp].d(T)[sp].d(T)[sp].d(T)[sp].d(G)[sp].[moe]([m5C])p.[moe](T)p.[moe](A)[sp].[moe](T)}$$$$ (last 3' nucleoside missing) | 5.3
RNA1{[moe](A)[sp].[moe](G)p.[moe](G)p.[moe](T)p.d([m5C])[sp].d(A)[sp].d(A)[sp].d([m5C])[sp].d([m5C])[sp].d(A)[sp].d(A)[sp].d(T)[sp].d(T)[sp].d(T)[sp].[moe](G)p.[moe]([m5C])p.[moe](T)p.[moe](A)[sp].[moe](T)}$$$$ (last 3' nucleoside missing) | 1
RNA1{[moe](A)[sp].[moe](G)p.[moe](G)p.[moe]([m5C])p.[moe](A)p.d(A)[sp].d(T)[sp].d(G)[sp].d(G)[sp].d(A)[sp].d([m5C])[sp].d(T)[sp].d(T)[sp].d(A)[sp].d(G)[sp].[moe](T)p.[moe](A)p.[moe]([m5C])[sp].[moe](A)}$$$$ (last 3' nucleoside missing) | 4
RNA1{[moe](A)[sp].[moe](G)p.[moe](G)p.[moe]([m5C])p.[moe](A)p.d(T)[sp].d(T)[sp].d(T)[sp].d(G)[sp].d(G)[sp].d(A)[sp].d(G)[sp].d([m5C])[sp].d(A)[sp].d(T)[sp].[moe](T)p.[moe]([m5C])p.[moe](G)[sp].[moe](G)}$$$$ (last 3' nucleoside missing) | 6.2
RNA1{[moe](A)[sp].[moe](G)p.[moe](T)p.[moe](A)p.[moe](T)p.d(A)[sp].d(G)[sp].d(A)[sp].d(T)[sp].d(G)[sp].d([m5C])[sp].d([m5C])[sp].d(T)[sp].d([m5C])[sp].d(T)[sp].[moe]([m5C])p.[moe]([m5C])p.[moe](T)[sp].[moe]([m5C])}$$$$ (last 3' nucleoside missing) | 3.3
RNA1{[moe](A)[sp].[moe](G)p.[moe](T)p.[moe](G)p.[moe](G)p.d(T)[sp].d(T)[sp].d(G)[sp].d([m5C])[sp].d([m5C])[sp].d(T)[sp].d(T)[sp].d(A)[sp].d(G)[sp].d(T)[sp].[moe](A)p.[moe](T)p.[moe](T)[sp].[moe](A)}$$$$ (last 3' nucleoside missing) | 6
RNA1{[moe](A)[sp].[moe](G)p.[moe](T)p.[moe](G)p.[moe](T)p.d([m5C])[sp].d(A)[sp].d(T)[sp].d(A)[sp].d(T)[sp].d(G)[sp].d(T)[sp].d(A)[sp].d(G)[sp].d([m5C])[sp].[moe](A)p.[moe](A)p.[moe](T)[sp].[moe](T)}$$$$ (last 3' nucleoside missing) | 4
RNA1{[moe](A)[sp].[moe](G)p.[moe](T)p.[moe](G)p.[moe]([m5C])p.d([m5C])[sp].d(T)[sp].d(T)[sp].d(T)[sp].d([m5C])[sp].d(T)[sp].d(A)[sp].d(T)[sp].d(T)[sp].d(T)[sp].[moe]([m5C])p.[moe](A)p.[moe](G)[sp].[moe](A)}$$$$ (last 3' nucleoside missing) | 0
RNA1{[moe](A)[sp].[moe](G)p.[moe](T)p.[moe](T)p.[moe](T)p.d(T)[sp].d([m5C])[sp].d(G)[sp].d([m5C])[sp].d([m5C])[sp].d([m5C])[sp].d(G)[sp].d(T)[sp].d(T)[sp].d(A)[sp].[moe]([m5C])p.[moe]([m5C])p.[moe](T)[sp].[moe]([m5C])}$$$$ (last 3' nucleoside missing) | 4
RNA1{[moe](A)[sp].[moe](G)p.[moe](T)p.[moe]([m5C])p.[moe](T)p.d(T)[sp].d([m5C])[sp].d(A)[sp].d(T)[sp].d(T)[sp].d(A)[sp].d(T)[sp].d(T)[sp].d([m5C])[sp].d(T)[sp].[moe]([m5C])p.[moe](T)p.[moe](A)[sp].[moe](G)}$$$$ (last 3' nucleoside missing) | 1
RNA1{[moe](A)[sp].[moe](G)p.[moe]([m5C])p.[moe](T)p.[moe](A)p.d(T)[sp].d([m5C])[sp].d(T)[sp].d(G)[sp].d(T)[sp].d(A)[sp].d([m5C])[sp].d(A)[sp].d(A)[sp].d(A)[sp].[moe](A)p.[moe](T)p.[moe](G)[sp].[moe](G)}$$$$ (last 3' nucleoside missing) | 4
RNA1{[moe](A)[sp].[moe](G)p.[moe]([m5C])p.[moe](T)p.[moe](T)p.d(T)[sp].d(A)[sp].d(G)[sp].d(T)[sp].d(A)[sp].d(T)[sp].d(G)[sp].d(T)[sp].d([m5C])[sp].d(G)[sp].[moe](A)p.[moe](G)p.[moe](A)[sp].[moe](A)}$$$$ (last 3' nucleoside missing) | 4.2
RNA1{[moe](A)[sp].[moe](G)p.[moe]([m5C])p.[moe](T)p.[moe]([m5C])p.d(A)[sp].d([m5C])[sp].d(T)[sp].d(G)[sp].d(A)[sp].d(A)[sp].d(A)[sp].d(G)[sp].d(A)[sp].d([m5C])[sp].[moe](A)p.[moe]([m5C])p.[moe](A)[sp].[moe](A)}$$$$ (last 3' nucleoside missing) | 5
RNA1{[moe](A)[sp].[moe](G)p.[moe]([m5C])p.[moe]([m5C])[sp].d(A)[sp].d(G)[sp].d(G)[sp].d(T)[sp].d(G)[sp].d(T)[sp].d([m5C])[sp].d(T)[sp].[moe](T)p.[moe](A)p.[moe](T)p.[moe](A)[sp].[moe](T)}$$$$ (last 3' nucleoside missing) | 6
RNA1{[moe](A)[sp].[moe](G)p.[moe]([m5C])p.[moe]([m5C])p.[moe](A)[sp].d(G)[sp].d(G)[sp].d(T)[sp].d(G)[sp].d(T)[sp].d([m5C])[sp].d(T)[sp].d(T)[sp].[moe](A)p.[moe](T)p.[moe](A)[sp].[moe](T)}$$$$ (last 3' nucleoside missing) | 6
RNA1{[moe](A)[sp].[moe](G)p.[moe]([m5C])p.[moe]([m5C])p.[moe](A)p.[moe](G)[sp].d(G)[sp].d(T)[sp].d(G)[sp].d(T)[sp].d([m5C])[sp].d(T)[sp].d(T)[sp].d(A)[sp].[moe](T)p.[moe](A)[sp].[moe](T)}$$$$ (last 3' nucleoside missing) | 0
RNA1{[moe](A)[sp].[moe](G)p.[moe]([m5C])p.[moe]([m5C])p.[moe](A)p.[moe](G)p.d(G)[sp].d(T)[sp].d(G)[sp].d(T)[sp].d([m5C])[sp].d(T)[sp].d(T)[sp].d(A)[sp].d(T)[sp].d(A)[sp].[moe](T)p.[moe]([m5C])[sp].[moe](T)}$$$$ (last 3' nucleoside missing) | 0
RNA1{[moe](A)[sp].[moe](G)p.[moe]([m5C])p.[moe]([m5C])p.[moe](A)p.d(G)[sp].d(G)[sp].d(T)[sp].d(G)[sp].d(T)[sp].d([m5C])[sp].d(T)[sp].d(T)[sp].d(A)[sp].d(T)[sp].[moe](A)p.[moe](T)p.[moe]([m5C])[sp].[moe](T)}$$$$ (last 3' nucleoside missing) | 2.3
RNA1{[moe](A)[sp].[moe](G)p.[moe]([m5C])p.[moe]([m5C])p.d(A)[sp].d(G)[sp].d(G)[sp].d(T)[sp].d(G)[sp].d(T)[sp].d([m5C])[sp].d(T)[sp].d(T)[sp].d(A)[sp].[moe](T)p.[moe](A)p.[moe](T)p.[moe]([m5C])[sp].[moe](T)}$$$$ (last 3' nucleoside missing) | 4
RNA1{[moe](A)[sp].[moe](T)[sp].[moe]([m5C])[sp].[moe](A)[sp].[moe](T)[sp].d(G)[sp].d(T)[sp].d(G)[sp].d([m5C])[sp].d(A)[sp].d(T)[sp].d(A)[sp].d([m5C])[sp].d([m5C])[sp].d([m5C])[sp].[moe](A)[sp].[moe](G)[sp].[moe](G)[sp].[moe](G)}$$$$ (last 3' nucleoside missing) | 5.2
RNA1{[moe](A)[sp].[moe](T)p.[moe](A)p.[moe](G)p.[moe]([m5C])p.d([m5C])[sp].d([m5C])[sp].d(T)[sp].d(T)[sp].d(T)[sp].d([m5C])[sp].d(A)[sp].d(G)[sp].d([m5C])[sp].d(A)[sp].[moe]([m5C])p.[moe](A)p.[moe]([m5C])[sp].[moe](T)}$$$$ (last 3' nucleoside missing) | 3.5
RNA1{[moe](A)[sp].[moe](T)p.[moe](G)p.[moe](A)p.[moe](T)p.d([m5C])[sp].d(A)[sp].d(T)[sp].d(A)[sp].d([m5C])[sp].d(T)[sp].d(G)[sp].d(G)[sp].d(A)[sp].d(G)[sp].[moe]([m5C])p.[moe]([m5C])p.[moe](A)[sp].[moe](G)}$$$$ (last 3' nucleoside missing) | 5.8
RNA1{[moe](A)[sp].[moe](T)p.[moe](G)p.[moe](A)p.[moe]([m5C])p.d(A)[sp].d(T)[sp].d(A)[sp].d(A)[sp].d([m5C])[sp].d([m5C])[sp].d(A)[sp].d(T)[sp].d(A)[sp].d(T)[sp].[moe](A)p.[moe]([m5C])p.[moe](A)[sp].[moe](A)}$$$$ (last 3' nucleoside missing) | 0
RNA1{[moe](A)[sp].[moe](T)p.[moe](G)p.[moe](G)p.[moe](G)p.d(A)[sp].d(G)[sp].d([m5C])[sp].d(T)[sp].d([m5C])[sp].d(T)[sp].d(G)[sp].d(G)[sp].d(A)[sp].d(A)[sp].[moe](A)p.[moe](A)p.[moe]([m5C])[sp].[moe](A)}$$$$ (last 3' nucleoside missing) | 4
